Source: patent publication US20260144252A1, “BROMINE- OR IODINE-PARA-SUBSTITUTED [(1,5-DIPHENYL-1H-1,2,4-TRIAZOL-3-YL)OXY]ACETIC ACID DERIVATIVES AND THEIR SALTS, AGENTS FOR PROTECTING USEFUL PLANTS OR CROP PLANTS COMPRISING THEM, METHODS FOR PRODUCING THEM AND THEIR USE AS SAFENERS” (Bayer Aktiengesellschaft, priority 2022, published 2026)

Legend:
Type in all cases: in vivo
[1] = test system: summer wheat (TRZAS, cv. Triso); assay: Reduction of damage by mesosulfuron-methyl on summer wheat (greenhouse, post-emergence safener test); design: key: 0: no reduction in damage (appearance corresponding to the herbicide control); 1: slight reduction in damage; 2: distinct reduction in damage; 3: significant reduction in damage; 4: complete reduction in damage (appearance corresponding to the untreated control); conditions: mesosulfuron-methyl 40 g/ha, visual, 12-13 days after application
Protocol: (§1) The seeds of the crop plants to be treated were laid out in soil in plastic pots (diameter ˜4 cm), covered with soil and grown in a greenhouse under good conditions for germination and growth. The trial plants were treated at the early leaf stage (BBCH10-BBCH12). In the course of this, the inventive compounds of the general formula (I) formulated in the form of wettable powders (WP) were sprayed onto the above-ground parts of the plants as an aqueous suspension with a water application rate corresponding to 800 l/ha with addition of wetting agent (Mero, 0.2%) in the specified dose. This was followed by the application of the herbicide. For this purpose, mesosulfuron-methyl, formulated in the form of water-dispersible granules (WG), was sprayed onto the above-ground parts of the plants in the form of an aqueous dispersion with a water application rate corresponding to 800 l/ha with addition of wetting agent (Biopower, 1 l/ha) in a dose of 40 g/ha. The dose of the herbicide was chosen here such that it causes average, visually clearly apparent damage (50-60%) compared to untreated crop plants at the evaluation time on a control group of crop plants without safener treatment that were included in the same trial. After application, the plants were cultivated under good growth conditions in a greenhouse. 12-13 days after application, the efficacy of the test compounds was assessed visually. For this purpose, the appearance of the plants treated with the test compound and herbicide was compared to the corresponding herbicide controls (without safener; with clearly visible damage) and the untreated controls (without damage). The damage-reducing effect of the test compounds was expressed here separately for 2 repeats in graded efficacy codes according to the following scheme: • 0: no reduction in damage (appearance corresponding to the herbicide control) • 1: slight reduction in damage • 2: distinct reduction in damage • 3: significant reduction in damage • 4: complete reduction in damage (appearance corresponding to the untreated control)

[2] = test system: summer barley (HORVS, cv. Quench); assay: Reduction of damage by mesosulfuron-methyl on summer barley (greenhouse, post-emergence safener test); design: key: 0: no reduction in damage (appearance corresponding to the herbicide control); 1: slight reduction in damage; 2: distinct reduction in damage; 3: significant reduction in damage; 4: complete reduction in damage (appearance corresponding to the untreated control); conditions: safener 100 g/ha, mesosulfuron-methyl 40 g/ha, visual, 12-13 days after application
Protocol: as §1

[3] = test system: durum wheat (TRZDU; cv. Joyau); assay: Comparative herbicide/safener combination test, damage by mesosulfuron-methyl + iodosulfuron-methyl-sodium; conditions: safener 20 g a.i./ha, damage without safener 20%
Protocol: (§2) The seeds of the crop plants to be treated were laid out in soil in wood fiber pots (diameter ˜7 cm), covered with soil and grown in a greenhouse under good conditions for germination and growth. The trial plants were treated at the early leaf stage (BBCH11-12). For this purpose, the herbicides and safeners used were formulated as wettable powders (WP), mixed in accordance with the dose specified in each case, and sprayed onto the above-ground parts of the plants as an aqueous suspension at a water application rate corresponding to 300 l/ha with addition of wetting agent (Biopower, 0.2%). The herbicidal effects were created using a mixture of mesosulfuron-methyl (40 g a.i./ha) and iodosulfuron-methyl-sodium (8 g a.i./ha). The total herbicide dose was chosen here such that it causes average, visually clearly apparent damage (min. 20%, max. 60%) compared to untreated crop plants at the evaluation time on a control group of crop plants without safener treatment that were included in the same trial. After application, the plants were cultivated under good growth conditions in a greenhouse. 20 days after application, the herbicide damage was assessed visually. The damage was assessed visually on a scale of 0-100% by comparison with untreated control plants, and averaged over 2 repeats per treatment.

[4] = test system: summer barley (HORVS; cv. Quench); assay: as above; conditions: safener 20 g a.i./ha, damage without safener 50%
Protocol: as §2

[5] = test system: winter barley (HORVW; cv. Zzoom); assay: as above; conditions: safener 20 g a.i./ha, damage without safener 55%
Protocol: as §2

[6] = mesosulfuron-methyl 40 + iodosulfuron-methyl-sodium 8 g a.i./ha, 20 days after application

| SMILES | Efficacy of the safener [Efficacy Code] ([1]; safener 100 g/ha) | Efficacy of the safener [Efficacy Code] ([1]; safener 500 g/ha) | Efficacy of the safener [Efficacy Code] [2] | Reduction in damage by safener (difference) [3] | Reduction in damage by safener (in %) [3] [%] | Damage to crop plant by herbicide treatment WITH SAFENER [3, 6] [%] | Reduction in damage by safener (difference) [4] | Reduction in damage by safener (in %) [4] [%] | Damage to crop plant by herbicide treatment WITH SAFENER [4, 6] [%] | Reduction in damage by safener (difference) [5] | Reduction in damage by safener (in %) [5] [%] | Damage to crop plant by herbicide treatment WITH SAFENER [5, 6] [%] |
| --- | --- | --- | --- | --- | --- | --- | --- | --- | --- | --- | --- | --- |
| CCOC(=O)COc1nc(-c2ccc(F)cc2F)n(-c2ccc(Br)cc2F)n1 [I.41-1] | 2 | 2 | 3 | – | – | – | – | – | – | – | – | – |
| COC(=O)CCOC(=O)COc1nc(-c2ccc(F)cc2F)n(-c2ccc(Br)cc2F)n1 [I.61-1] | – | – | 2 | – | – | – | – | – | – | – | – | – |
| O=C(COc1nc(-c2ccc(F)cc2F)n(-c2ccc(Br)cc2F)n1)OCC1CCOC1 (centres unmarked) [I.63-1] | – | – | 2 | – | – | – | – | – | – | – | – | – |
| COCCOC(=O)COc1nc(-c2ccc(F)cc2F)n(-c2ccc(Br)cc2F)n1 [I.67-1] | 2 | 3 | 3 | 20 | 100 | 0 | 50 | 100 | 0 | 45 | 82 | 10 |
